Among the data in patent US7507748B2, “Substituted aryl-amine derivatives and methods of use” (Amgen Inc., priority 2004, dated 2009) are IC50 values, retold here.

Some results are limits rather than exact numbers.

This test relates to Human Umbilical Vein Endothelial cells. In words: VEGF-stimulated HUVEC proliferation assay. The class given is cell-based. To be noted: 72 h, CyQuant, read-out: inhibited VEGF-stimulated HUVEC proliferation at a level. The method, then: Human Umbilical Vein Endothelial cells are purchased from Clonetics, Inc., as cryopreserved cells harvested from a pool of donors. These cells, at passage 1, are thawed and expanded in EBM-2 complete medium, until passage 2 or 3. The cells are trypsinized, washed in DMEM+10% FBS+antibiotics, and spun at 1000 rpm for 10 min. Prior to centrifugation of the cells, a small amount is collected for a cell count. After centrifugation, the medium is discarded, and the cells are resuspended in the appropriate volume of DMEM+10% FBS+antibiotics to achieve a concentration of 3×10^5 cells/mL. Another cell count is performed to confirm the cell concentration. The cells are diluted to 3×10^4 cells/mL in DMEM+10% FBS+antibiotics, and 100 μL of cells are added to a 96-well plate. The cells are incubated at 37° C. for 22 h.
Prior to the completion of the incubation period, compound dilutions are prepared. Five-point, five-fold serial dilutions are prepared in DMSO, at concentrations 400-fold greater than the final concentrations desired. 2.5 μL of each compound dilution are diluted further in a total of 1 mL DMEM+10% FBS+antibiotics (400× dilution). Medium containing 0.25% DMSO is also prepared for the 0 μM compound sample. At the 22-hour timepoint, the medium is removed from the cells, and 100 μL of each compound dilution is added. The cells are incubated at 37° C. for 2-3 h.
During the compound pre-incubation period, the growth factors are diluted to the appropriate concentrations. Solutions of DMEM+10% FBS+antibiotics, containing either VEGF or bFGF at the following concentrations: 50, 10, 2, 0.4, 0.08, and 0 ng/mL are prepared. For the compound-treated cells, solutions of VEGF at 550 ng/mL or bFGF at 220 ng/mL for 50 ng/mL or 20 ng/mL final concentrations, respectively, are prepared since 10 μL of each will be added to the cells (110 μL final volume). At the appropriate time after adding the compounds, the growth factors are added. VEGF is added to one set of plates, while bFGF is added to another set of plates. For the growth factor control curves, the media on wells B4-G6 of plates 1 and 2 are replaced with media containing VEGF or bFGF at the varying concentrations (50-0 ng/mL). The cells are incubated at 37° C. for an additional 72 h.
At the completion of the 72 h incubation period, the medium is removed, and the cells are washed twice with PBS. After the second wash with PBS, the plates are tapped gently to remove excess PBS, and the cells are placed at −70° C. for at least 30 min. The cells are thawed and analyzed using the CyQuant fluorescent dye (Molecular Probes C-7026), following the manufacturer's recommendations. The plates are read on a Victor/Wallac 1420 workstation at 485 nm/530 nm (excitation/emission). Raw data are collected and analyzed using a 4-parameter fit equation in XLFit. IC50 values are then determined.
Turning to `CC(C)(C)c1ccc(NC(=O)c2cccnc2Nc2cccc3cnccc23)cc1` [Example 67, N-(4-tert-Butyl-phenyl)-2-(isoquinolin-5-ylamino)-nicotinamide], the IC50 was below 1000 nM. Take `Cc1ccc(NC(=O)c2cccnc2Nc2ccc3nc(N)ncc3c2)cc1Cl` [Example 64, 2-(2-aminoquinazolin-6-ylamino)-N-(3-chloro-4-methylphenyl)nicotinamide]: the IC50 was below 1000 nM. As for `CC1(C)CC(=O)Nc2nc(NC(=O)c3cccnc3Nc3ccc4ccncc4c3)ccc21` [Example 58, N-(5,5-dimethyl-7-oxo-5,6,7,8-tetrahydro-1,8-naphthyridin-2-yl)-2-(isoquinolin-7-ylamino)nicotinamide], the IC50 is below 1000 nM. Take `CC(C)(C)OC(=O)NCC(=O)N1Cc2cc(NC(=O)c3cccnc3Nc3ccc4ccncc4c3)ccc2C(C)(C)C1` [Example 73, [2-(7-{[2-(Isoquinolin-7-ylamino)-pyridine-3-carbonyl]-amino}-4,4-dimethyl-3,4-dihydro-1H-isoquinolin-2-yl)-2-oxo-ethyl]-carbamic acid tert-butyl ester]: the IC50 is below 1000 nM.

Consider `CC1(C)CN(C(=O)[C@H]2CCCO2)Cc2cc(NC(=O)c3cccnc3Nc3ccc4ccncc4c3)ccc21` (stereo in doubt) [Example 74, N-[4,4-Dimethyl-2-(tetrahydro-furan-2-carbonyl)-1,2,3,4-tetrahydro-isoquinolin-7-yl]-2-(isoquinolin-7-ylamino)-nicotinamide], for which the IC50 was below 1000 nM. With `CC(C(=O)O)c1ccc(NC(=O)c2cccnc2Nc2ccc3ccncc3c2)cc1` (racemic) [Example 53, 2(R,S)-(4-{[2-(Isoquinolin-7-ylamino)-pyridine-3-carbonyl]-amino}-phenyl)-propionic acid] the figure was below 1000 nM. For the molecule `CC(C)(C)c1ccc(NC(=O)c2ccccc2Nc2ccc3ccncc3c2)cc1` [Example 27, N-(4-tert-Butyl-phenyl)-2-(isoquinolin-7-ylamino)-benzamide], the IC50 was below 1000 nM.

As for `CC1(C)CCNc2cc(NC(=O)c3ccccc3Nc3ccc4ncncc4c3)ccc21` [Example 30, N-(4,4-Dimethyl-1,2,3,4-tetrahydro-quinolin-7-yl)-2-(quinazolin-6-ylamino)-benzamide], the IC50 was below 1000 nM.

For `COC(c1ccc(NC(=O)c2cccnc2Nc2ccc3ccncc3c2)cc1)(C(F)(F)F)C(F)(F)F` [Example 10, 2-(Isoquinolin-7-ylamino)-N-[4-(2,2,2-trifluoro-1-methoxy-1-trifluoromethyl-ethyl)-phenyl]-nicotinamide], the IC50 was below 1000 nM.

For the molecule `CC(C)(C)c1cc(NC(=O)c2cccnc2Nc2ccc3ncncc3c2)on1` [Example 50, N-(3-tert-Butyl-isoxazol-5-yl)-2-(quinazolin-6-ylamino)-nicotinamide], the IC50 is below 1000 nM. `O=C(Nc1ccc(C(F)(F)F)cc1)c1cccnc1Nc1ccc2ccncc2c1` [Example 12, 2-(Isoquinolin-7-ylamino)-N-(4-trifluoromethyl-phenyl)-nicotinamide]: the IC50 was below 1000 nM. The same measure for `Cc1cc(NC(=O)c2cccnc2Nc2ccc3nc(N)ncc3c2)ccc1C(C)C` [Example 63, 2-(2-aminoquinazolin-6-ylamino)-N-(3-methyl-4-(1-methylethyl)phenyl)nicotinamide]: below 1000 nM; for `CC1(C)CN(C(=O)CN)Cc2cc(NC(=O)c3cccnc3Nc3ccc4ccncc4c3)ccc21` [Example 75, N-[2-(2-Amino-acetyl)-4,4-dimethyl-1,2,3,4-tetrahydro-isoquinolin-7-yl]-2-(isoquinolin-7-ylamino)-nicotinamide]: below 1000 nM; for `CC(C)(C)c1ccc(NC(=O)c2cccnc2Nc2ccc3ncncc3c2)cc1` [Example 56, N-(4-tert-Butyl-phenyl)-2-(quinazolin-6-ylamino)-nicotinamide]: below 1000 nM. On to `CC1(C)CC(=O)Nc2cc(NC(=O)c3cccnc3Nc3ccc4[nH]nnc4c3)ccc21` [Example 24, 2-(1H-1,2,3-benzotriazol-5-ylamino)-N-(4,4-dimethyl-2-oxo-1,2,3,4-tetrahydroquinolin-7-yl)nicotinamide], for which the IC50 is below 1000 nM. On to `CC(C)(C)c1cc(NC(=O)c2cccnc2Nc2ccc3[nH]nnc3c2)no1` [Example 25, 2-(1H-benzo[d][1,2,3]triazol-5-ylamino)-N-(5-tert-butylisoxazol-3-yl)nicotinamide], for which the IC50 is below 1000 nM. With `Cc1ccc(NC(=O)c2cccnc2Nc2ccc3ccncc3c2)cc1Cl` [Example 60, N-(3-chloro-4-methylphenyl)-2-(isoquinolin-7-ylamino)nicotinamide] the figure was below 1000 nM; with `CCOC(=O)C(C)c1ccc(NC(=O)c2cccnc2Nc2ccc3ccncc3c2)cc1` (racemic) [Example 52, 2(R,S)-(4-{[2-(Isoquinolin-7-ylamino)-pyridine-3-carbonyl]-amino}-phenyl)-propionic acid ethyl ester], below 1000 nM. Regarding `CC(C)(C)c1ccc(NC(=O)c2cccnc2Nc2ccc3ccncc3c2)cc1` [Example 14, N-(4-tert-Butyl-phenyl)-2-(isoquinolin-7-ylamino)-nicotinamide], the IC50 was below 1000 nM.

For the molecule `CC1(C)CNCc2cc(NC(=O)c3cccnc3Nc3ccc4c(c3)OC(F)(F)O4)ccc21` [Example 22, 2-(2,2-Difluoro-benzo[1,3]dioxol-5-ylamino)-N-(4,4-dimethyl-1,2,3,4-tetrahydro-isoquinolin-7-yl)-nicotinamide], the IC50 is below 1000 nM. In the case of `CC(C)(C)c1ccc(NC(=O)c2cccc(F)c2Nc2ccc3ccncc3c2)cc1` [Example 29, N-(4-tert-Butyl-phenyl)-3-fluoro-2-(isoquinolin-7-ylamino)-benzamide], the IC50 was below 1000 nM. Regarding `CC(C)(C)c1cc(NC(=O)c2cccnc2Nc2ccc3ccncc3c2)no1` [Example 15, N-(5-tert-Butyl-isoxazol-3-yl)-2-(isoquinolin-7-ylamino)-nicotinamide], the IC50 was below 1000 nM. As to `O=C(Nc1ccc(Cl)c(C(F)(F)F)c1)c1cccnc1Nc1ccc2ccncc2c1` [Example 34, N-(4-Chloro-3-trifluoromethyl-phenyl)-2-(isoquinolin-7-ylamino)-nicotinamide], the IC50 is below 1000 nM. With `Nc1ncc2cc(Nc3ncccc3C(=O)Nc3ccc(Cl)cc3)ccc2n1` [Example 65, 2-(2-aminoquinazolin-6-ylamino)-N-(4-chlorophenyl)nicotinamide], the IC50 is below 1000 nM.

For `Cc1nc2cc(NC(=O)c3cccnc3Nc3ccc4[nH]nnc4c3)ccc2s1` [Example 23, 2-(1H-Benzotriazol-5-ylamino)-N-(2-methyl-benzothiazol-5-yl)-nicotinamide], the IC50 was below 1000 nM. With `CC1(C)CCNc2cc(NC(=O)c3ccccc3Nc3ccc4ccncc4c3)ccc21` [Example 28, N-(4,4-Dimethyl-1,2,3,4-tetrahydro-quinolin-7-yl)-2-(isoquinolin-7-ylamino)-benzamide] the figure was below 1000 nM. With `CC(=O)N1Cc2cc(NC(=O)c3cccnc3Nc3ccc4ccncc4c3)ccc2C(C)(C)C1` [Example 13, N-(2-Acetyl-4,4-dimethyl-1,2,3,4-tetrahydro-isoquinolin-7-yl)-2-(isoquinolin-7-ylamino)-nicotinamide], the IC50 was below 1000 nM.
